Assay results as given in patent US7098219B2, “Inhibitors of cellular efflux pumps of microbes” (Wockhart Limited, priority 2000, dated 2006).

Tested on: Staphylococcus aureus 1199 B NorA+
Assay type: cell-based
Conditions: combination with ciprofloxacin, broth microdilution checkerboard, 35° C. 20 hours; FIC index ≦0.5 synergistic, 0.5–2.0 additive, >2.0 antagonistic
Description: Testing method for inhibition of the efflux pump of Staphylococcus aureus 1199B NorA^+
[…]. Victor Lorian, Md., Fourth edition 1996, pp 333–338).
In short, the assay involves broth microdilution method performed as recommended by the National Committee for Clinical Laboratory Standards (NCCLS) 1997 (Methods for Dilution of Antimicrobial Susceptibility Tests for Bacteria that Grow Aerobically, Fourth edition; Approved Standard, NCCLS document M7-A4, vol. 17, No. 2). The test organism used for the assay is Staphylococcus aureus 1199 B NorA^+.
[…]. Stock solutions of the efflux pump inhibitors tested are prepared in dimethyl sulfoxide (DMSO) at a final concentration of 5 mg/ml. Stock solutions are further diluted in Mueller Hinton Broth as per the need of the assay. Ciprofloxacin is dissolved in water.
The checkerboard assay is performed in microtiter plates. […] The efflux pump inhibitor is diluted in the Y-axis, each row containing an equal concentration of efflux pump inhibitor. The result of these manipulations is that each well of the microtiter plate contains a unique combination of concentrations of the two agents. Bacterial inoculum is added at 5×10^5 CFU/ml. Microtiter plates are incubated at 35° C. for 20 hours. Reading is done by visibly noting turbidity and confirmed using a microtiter plate reader (Molecular Devices). The FIC index is calculated as
(A) is the concentration of the experimental efflux pump inhibitor in the well that is the lowest inhibitory concentration in the Y-axis. (MICA) is the MIC of Staphylococcus aureus to experimental efflux pump inhibitor alone. FICA is the fractional inhibitory concentration of an experimental efflux pump inhibitor. […] (Antimicrobial Combination In Antibiotics in Laboratory Medicine, Ed. Victor Lorian, Md., Fourth edition 1996, pp 333–338).

| SMILES | FIC INDEX |
| --- | --- |
| COc1c(N2CC(C)C(O)C(C)C2)c(F)cc2c(=O)c(C(=O)O)cn(C3CC3)c12 (centres unmarked) [Example 22 (NorA), 1-Cyclopropyl-6-fluoro-8-methoxy-1,4-dihydro-7-(4′-hydroxy-3′,5′-dimethylpiperidin-1-yl)-4-oxo-quinoline-3-carboxylic acid] | 0.370 |
| CCn1cc(C(=O)O)c(=O)c2c(N)c(F)c(N3CCC(N)CC3)c(F)c21 [Example 6 (NorA), 5-Amino-1-ethyl-6,8-difluoro-1,4-dihydro-7-(4′-aminopiperidin-1-yl)-4-oxo-quinoline-3-carboxylic acid] | 0.314 |
| Nc1c(F)c(NC2CCN(c3nc4c(cc3F)c(=O)c(C(=O)O)cn4C3CC3)C2)c(F)c2c1c(=O)c(C(=O)O)cn2C1CC1 (centres unmarked) [Bis compound 3] | 0.314 |
| CN1CCN(c2cc3c(cc2F)c(=O)c(C(=O)O)cn3-c2ccccc2C(F)(F)F)CC1(C)C [Example 39 (NorA), 1-(2′-Trifluoromethylphenyl)-6-fluoro-1,4-dihydro- -7-(3′,3′,4′-trimethylpiperazin-1-yl)-4-oxo-quinoline-3-carboxylic acid] | 0.282 |
| C[C@H]1CCc2c(N3CCC(C(N)=O)CC3)c(F)cc3c(=O)c(C(=O)O)cn1c23 [Example 53 (NorA), (S)-(−)-9-Fluoro-6,7-dihydro-8-(4′-carboxamidopineridin-1-yl)-5-methyl-1-oxo-1H,5H-benzo[i,j]quinolizine-2-carboxylic acid] | 0.192 |
| CCOC(=O)c1cc(F)c(NC2CCN(c3c(F)c(N)c4c(=O)c(C(=O)O)cn(C5CC5)c4c3F)CC2)c(F)c1F [Bis compound 10, N-1-{7-(1-cyclopropyl-6,8-difluoro-5-amino-1,4-dihydro-4-oxo-quinolone-3-carboxylic acid)}-N-4-amino-{ethyl 2,3,6-trifluorophenyl-4-carboxylate}-piperidine] | 0.304 |
| CC1CCC(N)N1c1c(F)c(N)c2c(=O)c(C(=O)O)cn(C3CC3)c2c1F (centres unmarked) [Example 26 (NorA), 5-Amino-1-cyclopropyl-6,8-difluoro-1,4-dihydro-7-(5′-amino-2′-methyl-pyrrolidin-1-yl)-4-oxo-quinoline-3-carboxylic acid] | 0.628 |
| Cc1c(F)c(N2CCC(Nc3c(F)c(N)c4c(=O)c(C(=O)O)cn(C5CC5)c4c3F)CC2)cc2c1c(=O)c(C(=O)O)cn2C1CC1 [Bis compound 6, N-1-{7-(1-cyclopropyl-6-fluoro-5-methyl-1,4-dihydro-4-oxo-quinolone-3-carboxylic acid)}-N-4-amino{7-(1-cyclopropyl-6,8-difluoro-5-amino-1,4-dihydro-4-oxo-quinoline-3-carboxylic acid)}-piperidine] | 0.304 |
| CCOC1CCN(c2cc3c(c(C)c2F)c(=O)c(C(=O)O)cn3C2CC2)CC1 [Example 17 (NorA), 1-Cyclopropyl-6-fluoro-1,4-dihydro-5-methyl-7-(4′-ethoxypiperidin-1-yl)-4-oxo-quinoline-3-carboxylic acid] | 0.378 |
| CCn1cc(C(=O)O)c(=O)c2cc(F)c(N3CCC(OC(C)=O)CC3)c(F)c21 [Example 2 (NorA), 1-Ethyl-6,8-fluoro-1,4-dihydro-7-(4′-acetoxypiperidin-1-yl)-4-oxo-quinoline-3-carboxylic acid] | 0.314 |
| CC(=O)NC1CC(C)N(c2cc3c(cc2F)c(=O)c(C(=O)O)cn3C2CC2)C1 (centres unmarked) [9 (NorA), 1-Cyclopropyl-6-fluoro-1,4-dihydro-7-(3′-acetamido-5′-methylpyrrolidin-1-yl)-4-oxo-quinoline-3-carboxylic acid] | 0.314 |
| CC1CN(c2cc3c(cc2F)c(=O)c(C(=O)O)cn3C2CC2)CC(C)N1C (centres unmarked) [Example 15 (NorA), 1-Cyclopropyl-6-fluoro-1,4-dihydro-7-(3′,4′,5′-trimethylpiperazin-1-yl)-4-oxo-quinoline-3-carboxylic acid] | 0.314 |
| C[C@H]1CCc2c(N3CCC(O)CC3)c(F)cc3c(=O)c(C(=O)OC4CCN(C)CC4)cn1c23 [Example 56 (NorA), (S)-(−)-N-methylpiperidino-9-fluoro-6,7-dihydro-8-(4′-hydroxypiperidin-1-yl)-5-methyl-1-oxo-1H,5H-benzo[i,j]quinolizine-2-carboxylic acid] | 0.180 |
| CCOC(=O)NC1CCN(c2nc3c(cc2F)c(=O)c(C(=O)O)cn3C2CC2)C1 (centres unmarked) [Example 48 (NorA), 1-Cyclopropyl-6-fluoro-1,4-dihydro-7-{(3′-aminoethoxycarbonyl)pyrrolidin-3-yl}-4-oxo-naphthyridine-3-carboxylic acid] | (3-ethoxycarbonylamino)pyrrolidin-3-yl 0.314 |
| C[C@H]1CCc2c(N3CCC(O)C(C)(C)C3)c(F)cc3c(=O)c(C(=O)O)cn1c23 (stereo partly drawn) [Example 55 (NorA), S-(−)-9-Fluoro-6,7-dihydro-8-(4′-hydroxy-3′,3′-dimethylpiperidin-1-yl)-5-methyl-1-oxo-1H,5H-benzo[i,j]quinolizine-2-carboxylic acid] | 0.378 |
| COc1c(N2CCNC(C)C2)c(F)cc2c(=O)c(C(=O)O)cn(C3CC3)c12 (centres unmarked) [Example 23 (NorA), 1-Cyclopropyl-6-fluoro-8-methoxy-1,4-dihydro-7-(3′-methylpiperazin-1-yl)-4-oxo-quinoline-3-carboxylic acid] | 0.314 |
| CC1CN(c2cc3c(cc2F)c(=O)c(C(=O)O)cn3C2CC2)CC(C)C1O (centres unmarked) [Example 14 (NorA), 1-Cyclopropyl-6-fluoro-1,4-dihydro-7-(4′-hydroxy-3′,5′-dimethylpiperidin-1-yl)-4-oxo-quinoline-3-carboxylic acid] | 0.314 |
| CN(C)C1CCN(c2cc3c(cc2F)c(=O)c(C(=O)O)cn3C2CC2)CC1 [Example 12 (NorA), 1-Cyclopropyl-6-fluoro-1,4-dihydro-7-(4′-(N-dimethylamino)piperidin-1-yl)-4-oxo-quinoline-3-carboxylic acid] | 0.188 |
| C[C@H](NC(=O)OC(C)(C)C)C(=O)N[C@@H](C)C(=O)NC1CCN(c2c(F)c(N)c3c(=O)c(C(=O)O)cn(C4CC4)c3c2F)CC1 [Example 29 (NorA), 5-Amino-1-cyclopropyl-6,8-difluoro-1,4-dihydro-7-{4′-(-t-butoxycarbonylamino-L-Ala-L-Ala)aminopiperidin-1-yl}-4-oxo-quinoline-3-carboxylic acid] | 0.320 |
| CC1CN(c2c(F)c(N)c3c(=O)c(C(=O)O)cn(C4CC4)c3c2F)CC(C)N1C(=O)C(C)(C)C (centres unmarked) [Example 37 (NorA), 5-Amino-1-cyclopropyl-6,8-difluoro-1,4-dihydro-7-(3′,5′-dimethyl-4-pivaloylpiperazin-1-yl)-4-oxo-quinoline-3-carboxylic acid] | 0.314 |
| CCn1cc(C(=O)O)c(=O)c2cc(F)c(N3CCN(CCN4CCOC4=O)CC3)c(F)c21 [Example 3 (NorA), 1-Ethyl-6,8-fluoro-1,4-dihydro-7-(4′-{2′-(2′-oxazolidin-1yl)ethyl}piperazin-1-yl)-4-oxo-quinoline-3-carboxylic acid] | 0.188 |
| CCOC(=O)c1cn(-c2ccc(F)cc2F)c2nc(N3CCc4c(cnn4-c4ccccc4)C3)c(F)cc2c1=O [Example 52 (NorA), Ethyl 6-fluoro-7-[1-Phenyl-4,5,6,7-tetrahydropyrazolo[4.3-c]pyridin-1-yl]-1-(2,4-difluorophenyl)-4-oxo-1,4-dihydro-1,8-naphthyridine-3-carboxylate] | 0.100 |
| CC1(C)CN(c2c(F)c(N)c3c(=O)c(C(=O)O)cn(C4CC4)c3c2F)CCC1O (centres unmarked) [Example 31 (NorA), 5-Amino-1-cyclopropyl-6,8-difluoro-1,4-dihydro-7-(4′-hydroxy-3′,3′-dimethyl-piperidin-1-yl)-4-oxo-quinoline-3-carboxylic acid] | 0.304 |
| Nc1c(F)c(N2CCC(N3CCCC3)CC2)c(F)c2c1c(=O)c(C(=O)O)cn2C1CC1 [Example 32 (NorA), 5-Amino-1-cyclopropyl-6,8-difluoro-1,4-dihydro-7-{4′-(1-pyrrolidinyl)piperidin-1-yl)-4-oxo-quinoline-3-carboxylic acid] | 0.340 |
| CCn1cc(C(=O)O)c(=O)c2cc(F)c(N3CCc4ccccc4C3)cc21 [1 (NorA), 1-Ethyl-6-fluoro-1,4-dihydro-7-(1′,2′,3′,4′-tetrahydroisoquinolin-2-yl)-4-oxo-quinoline-3-carboxylic acid] | 0.314 |
| Cc1c(F)c(N2CCC(Nc3c(F)c(N)c4c(=O)c(C(=O)O)cn(C5CC5)c4c3F)C2)cc2c1c(=O)c(C(=O)O)cn2C1CC1 (centres unmarked) [Bis compound 7, N-1-{7-(1-cyclopropyl-6-fluoro-5-methyl-1,4-dihydro-4-oxo-quinolone-3-carboxylic acid)}-N-3-amino{7-(1-cyclopropyl-6,8-difluoro-5-amino-1,4-dihydro-4-oxo-quinoline-3-carboxylic acid)}-pyrrolidine] | 0.304 |
